According to patent US6888015B2, “Sphingolipid synthesis inhibitor” (Japan Science and Technology Agency, priority 2001, dated 2005):

Biological target: T1, GlcCer synthase (Cricetulus griseus, UniProt A0A9J7CH29)
T1 construct: Membrane fraction prepared from CHO cells is used as an enzyme source; endogenous in cells; host or cells: CHO cells, membrane fraction
T1 sequence (A0A9J7CH29 1-394): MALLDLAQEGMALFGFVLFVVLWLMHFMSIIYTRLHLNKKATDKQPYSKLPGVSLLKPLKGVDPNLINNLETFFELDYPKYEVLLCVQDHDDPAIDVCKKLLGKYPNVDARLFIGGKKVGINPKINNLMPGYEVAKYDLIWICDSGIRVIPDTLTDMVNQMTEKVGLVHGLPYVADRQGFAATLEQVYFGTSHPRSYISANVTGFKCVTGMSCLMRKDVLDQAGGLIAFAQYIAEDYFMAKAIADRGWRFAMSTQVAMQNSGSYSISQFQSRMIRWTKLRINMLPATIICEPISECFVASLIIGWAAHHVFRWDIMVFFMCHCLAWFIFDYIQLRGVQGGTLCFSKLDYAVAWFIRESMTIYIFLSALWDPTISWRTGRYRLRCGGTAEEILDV
Test: GlcCer synthase enzyme assay, CHO membrane fraction
Type: biochemical, Chinese hamster
Conditions: 20 μM; substrate C6-NBD-Cer
Experimental: Membrane fraction prepared from CHO cells is used as an enzyme source.
Enzyme assays of SM synthesis and GlcCer synthase are carried out by using C6-NBD-Cer as a substrate as disclosed in Document 6.

CCCCCCCCCCCC(=O)NC(CO)CC(O)c1ccccc1 (centres unmarked) [HPA-12, N-(3-hydroxy-1-hydroxymethyl-3-phenylprol)dodecaneamide]
C6-NBD-GlcCer formed (GlcCer synthase activity): 325.9 ± 17.1 pmol/mg protein/10 minutes
inhibition of GlcCer synthase: Neither of SM synthase nor GlcCer synthase is inhibited
